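Five compound concentrations were applied to cells in 96-well plates for 48 hours; endpoints were derived by simple linear interpolation of the resulting dose-response curve. TGI denotes the concentration required for complete inhibition of growth.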
What was measured:
Experiment in all cases: inhibition of tumour cell growth, NCI panel, 48 h
786-0 renal = tested on: 786-0 renal
NCI-H522 lung = tested on: NCI-H522 lung
NCI-H460 lung = tested on: NCI-H460 lung
SW-620 colon = tested on: SW-620 colon
SK-MEL-5 melanoma = tested on: SK-MEL-5 melanoma
SF-268 CNS = tested on: SF-268 CNS
K-562 leukemia = tested on: K-562 leukemia
MDA-MB-435 = tested on: MDA-MB-435
HCT-116 colon = tested on: HCT-116 colon
HS 578T breast = tested on: HS 578T breast
RPMI-8226 leukemia = tested on: RPMI-8226 leukemia
SR leukemia = tested on: SR leukemia
SNB-19 CNS = tested on: SNB-19 CNS
DU-145 prostate = tested on: DU-145 prostate
M14 melanoma = tested on: M14 melanoma
MCF7 breast = tested on: MCF7 breast
MDA-MB-231 breast = tested on: MDA-MB-231 breast
HT29 colon = tested on: HT29 colon
HOP-62 NSCLC = tested on: HOP-62 NSCLC
CAKI-1 renal = tested on: CAKI-1 renal
UACC-62 melanoma = tested on: UACC-62 melanoma
ACHN renal = tested on: ACHN renal
HCC-2998 colon = tested on: HCC-2998 colon
LOX IMVI melanoma = tested on: LOX IMVI melanoma
NCI-H23 lung = tested on: NCI-H23 lung
MOLT-4 leukemia = tested on: MOLT-4 leukemia
IGROV1 ovarian = tested on: IGROV1 ovarian
SNB-75 CNS = tested on: SNB-75 CNS
U251 CNS = tested on: U251 CNS
A549 NSCLC = tested on: A549 NSCLC
OVCAR-8 ovarian = tested on: OVCAR-8 ovarian
EKVX NSCLC = tested on: EKVX NSCLC
MDA-N = tested on: MDA-N
OVCAR-3 ovarian = tested on: OVCAR-3 ovarian
UACC-257 melanoma = tested on: UACC-257 melanoma
MALME-3M melanoma = tested on: MALME-3M melanoma
NCI-H226 lung = tested on: NCI-H226 lung
OVCAR-5 ovarian = tested on: OVCAR-5 ovarian
TK-10 renal = tested on: TK-10 renal
UO-31 renal = tested on: UO-31 renal
CCRF-CEM leukemia = tested on: CCRF-CEM leukemia
HCT-15 colon = tested on: HCT-15 colon
KM12 colon = tested on: KM12 colon
SK-MEL-2 melanoma = tested on: SK-MEL-2 melanoma
SN12C renal = tested on: SN12C renal
A498 renal = tested on: A498 renal
OVCAR-4 ovarian = tested on: OVCAR-4 ovarian
PC-3 prostate = tested on: PC-3 prostate
SK-OV-3 ovarian = tested on: SK-OV-3 ovarian
SK-MEL-28 melanoma = tested on: SK-MEL-28 melanoma
HOP-92 NSCLC = tested on: HOP-92 NSCLC
SF-295 CNS = tested on: SF-295 CNS
COLO 205 colon = tested on: COLO 205 colon
SF-539 CNS = tested on: SF-539 CNS
T-47D breast = tested on: T-47D breast
NCI/ADR-RES ovarian = tested on: NCI/ADR-RES ovarian
HL-60(TB) leukemia = tested on: HL-60(TB) leukemia
RXF 393 renal = tested on: RXF 393 renal

For `CCC1=C(c2ccc(OC)cc2)CC[C@@]2(CCNC2=O)[C@@H]1C`, which TGI (786-0 renal) is on record?
The TGI was greater than 100 µM.

What about the TGI (NCI-H522 lung) of the same compound?
Its TGI is greater than 100 µM.

What about the TGI (NCI-H460 lung) of the same compound?
Its TGI is greater than 100 µM.

And the TGI (SW-620 colon)?
The TGI was greater than 100 µM.

What about the TGI (SK-MEL-5 melanoma) of the same compound?
The TGI was 58.7 µM.

What about the TGI (SF-268 CNS) of the same compound?
The TGI was greater than 100 µM.

And the TGI (K-562 leukemia)?
Its TGI is greater than 95.9 µM.

And the TGI (MDA-MB-435)?
Its TGI is greater than 100 µM.

And the TGI (HCT-116 colon)?
Its TGI is greater than 100 µM.

What about the TGI (HS 578T breast) of the same compound?
The TGI was greater than 89.5 µM.

And the TGI (RPMI-8226 leukemia)?
The TGI was greater than 100 µM.

And the TGI (SR leukemia)?
The TGI was greater than 100 µM.

What about the TGI (SNB-19 CNS) of the same compound?
The TGI was greater than 100 µM.

What about the TGI (DU-145 prostate) of the same compound?
Its TGI is greater than 100 µM.

And the TGI (M14 melanoma)?
The TGI was greater than 100 µM.

What about the TGI (MCF7 breast) of the same compound?
The TGI was greater than 100 µM.

And the TGI (MDA-MB-231 breast)?
The TGI was greater than 100 µM.

What about the TGI (HT29 colon) of the same compound?
The TGI was greater than 100 µM.

And the TGI (HOP-62 NSCLC)?
Its TGI is greater than 100 µM.

And the TGI (CAKI-1 renal)?
Its TGI is greater than 100 µM.

What about the TGI (UACC-62 melanoma) of the same compound?
Its TGI is greater than 100 µM.

What about the TGI (ACHN renal) of the same compound?
Its TGI is greater than 100 µM.

And the TGI (HCC-2998 colon)?
The TGI was greater than 100 µM.

And the TGI (LOX IMVI melanoma)?
Its TGI is greater than 100 µM.

And the TGI (NCI-H23 lung)?
Its TGI is greater than 100 µM.

And the TGI (MOLT-4 leukemia)?
Its TGI is greater than 90.3 µM.

What about the TGI (IGROV1 ovarian) of the same compound?
The TGI was greater than 100 µM.

What about the TGI (SNB-75 CNS) of the same compound?
The TGI was greater than 100 µM.

What about the TGI (U251 CNS) of the same compound?
Its TGI is greater than 100 µM.

And the TGI (A549 NSCLC)?
The TGI was greater than 100 µM.

What about the TGI (OVCAR-8 ovarian) of the same compound?
Its TGI is greater than 100 µM.

What about the TGI (EKVX NSCLC) of the same compound?
The TGI was greater than 100 µM.

And the TGI (MDA-N)?
The TGI was greater than 100 µM.

And the TGI (OVCAR-3 ovarian)?
Its TGI is greater than 100 µM.

What about the TGI (UACC-257 melanoma) of the same compound?
The TGI was greater than 100 µM.

What about the TGI (MALME-3M melanoma) of the same compound?
The TGI was greater than 100 µM.

What about the TGI (NCI-H226 lung) of the same compound?
The TGI was greater than 100 µM.

What about the TGI (OVCAR-5 ovarian) of the same compound?
The TGI was greater than 100 µM.

What about the TGI (TK-10 renal) of the same compound?
Its TGI is greater than 100 µM.

And the TGI (UO-31 renal)?
The TGI was greater than 100 µM.

What about the TGI (CCRF-CEM leukemia) of the same compound?
The TGI was greater than 100 µM.

What about the TGI (HCT-15 colon) of the same compound?
The TGI was greater than 100 µM.

What about the TGI (KM12 colon) of the same compound?
The TGI was greater than 100 µM.

What about the TGI (SK-MEL-2 melanoma) of the same compound?
The TGI was greater than 100 µM.

And the TGI (SN12C renal)?
Its TGI is greater than 100 µM.

What about the TGI (A498 renal) of the same compound?
Its TGI is greater than 100 µM.

What about the TGI (OVCAR-4 ovarian) of the same compound?
The TGI was greater than 100 µM.

What about the TGI (PC-3 prostate) of the same compound?
Its TGI is greater than 100 µM.

What about the TGI (SK-OV-3 ovarian) of the same compound?
Its TGI is greater than 100 µM.

And the TGI (SK-MEL-28 melanoma)?
Its TGI is greater than 100 µM.

And the TGI (HOP-92 NSCLC)?
The TGI was greater than 100 µM.

And the TGI (SF-295 CNS)?
The TGI was greater than 100 µM.

And the TGI (COLO 205 colon)?
The TGI was greater than 100 µM.

And the TGI (SF-539 CNS)?
Its TGI is greater than 100 µM.

And the TGI (T-47D breast)?
The TGI was greater than 100 µM.

What about the TGI (NCI/ADR-RES ovarian) of the same compound?
Its TGI is greater than 100 µM.

For `c1ccc([P+](CCN2Cc3ccccc3C2)(c2ccccc2)c2ccccc2)cc1`, which TGI (786-0 renal) is on record?
Its TGI is 44.4 µM.

What about the TGI (NCI-H522 lung) of the same compound?
The TGI was 12.2 µM.

And the TGI (NCI-H460 lung)?
Its TGI is greater than 100 µM.

What about the TGI (SW-620 colon) of the same compound?
Its TGI is 25.8 µM.

And the TGI (SK-MEL-5 melanoma)?
Its TGI is 11.3 µM.

What about the TGI (SF-268 CNS) of the same compound?
The TGI was 30.1 µM.

What about the TGI (K-562 leukemia) of the same compound?
Its TGI is greater than 100 µM.

What about the TGI (MDA-MB-435) of the same compound?
The TGI was 13.7 µM.

What about the TGI (HL-60(TB) leukemia) of the same compound?
Its TGI is 10.5 µM.

And the TGI (HCT-116 colon)?
Its TGI is 20.9 µM.

What about the TGI (HS 578T breast) of the same compound?
Its TGI is greater than 100 µM.

What about the TGI (SR leukemia) of the same compound?
Its TGI is 52 µM.

And the TGI (SNB-19 CNS)?
Its TGI is greater than 100 µM.

What about the TGI (DU-145 prostate) of the same compound?
Its TGI is 45.6 µM.

What about the TGI (M14 melanoma) of the same compound?
Its TGI is 23 µM.

And the TGI (MCF7 breast)?
The TGI was 14.4 µM.

And the TGI (MDA-MB-231 breast)?
Its TGI is 16.2 µM.

And the TGI (HT29 colon)?
The TGI was 22.2 µM.

And the TGI (HOP-62 NSCLC)?
Its TGI is 45.3 µM.

What about the TGI (CAKI-1 renal) of the same compound?
The TGI was greater than 100 µM.

What about the TGI (UACC-62 melanoma) of the same compound?
The TGI was 13.1 µM.

And the TGI (ACHN renal)?
Its TGI is 23.1 µM.

What about the TGI (HCC-2998 colon) of the same compound?
Its TGI is 15.9 µM.

What about the TGI (LOX IMVI melanoma) of the same compound?
Its TGI is 33 µM.

What about the TGI (NCI-H23 lung) of the same compound?
Its TGI is greater than 100 µM.

And the TGI (MOLT-4 leukemia)?
Its TGI is greater than 100 µM.

And the TGI (IGROV1 ovarian)?
Its TGI is 5.87 µM.

And the TGI (SNB-75 CNS)?
The TGI was 8.71 µM.

What about the TGI (U251 CNS) of the same compound?
The TGI was 19.5 µM.

What about the TGI (A549 NSCLC) of the same compound?
The TGI was greater than 100 µM.

And the TGI (OVCAR-8 ovarian)?
The TGI was 7.95 µM.

What about the TGI (EKVX NSCLC) of the same compound?
The TGI was greater than 100 µM.

What about the TGI (MDA-N) of the same compound?
The TGI was 14.3 µM.

And the TGI (OVCAR-3 ovarian)?
Its TGI is 18.1 µM.

What about the TGI (UACC-257 melanoma) of the same compound?
Its TGI is 12.4 µM.

And the TGI (MALME-3M melanoma)?
The TGI was 25.1 µM.

What about the TGI (NCI-H226 lung) of the same compound?
The TGI was 31.7 µM.

What about the TGI (OVCAR-5 ovarian) of the same compound?
The TGI was 57 µM.

What about the TGI (TK-10 renal) of the same compound?
The TGI was 41.5 µM.

And the TGI (UO-31 renal)?
The TGI was 34.6 µM.

What about the TGI (CCRF-CEM leukemia) of the same compound?
Its TGI is 40.5 µM.

What about the TGI (HCT-15 colon) of the same compound?
Its TGI is 36.2 µM.

And the TGI (KM12 colon)?
Its TGI is 16 µM.

And the TGI (RXF 393 renal)?
Its TGI is 22.3 µM.

What about the TGI (SK-MEL-2 melanoma) of the same compound?
Its TGI is 5.41 µM.

And the TGI (SN12C renal)?
The TGI was 32.8 µM.

What about the TGI (A498 renal) of the same compound?
Its TGI is 55.6 µM.

And the TGI (PC-3 prostate)?
Its TGI is greater than 100 µM.

And the TGI (SK-OV-3 ovarian)?
Its TGI is 66.2 µM.

What about the TGI (SK-MEL-28 melanoma) of the same compound?
The TGI was 9.6 µM.

And the TGI (HOP-92 NSCLC)?
The TGI was 6.41 µM.

And the TGI (SF-295 CNS)?
Its TGI is 83.9 µM.

What about the TGI (COLO 205 colon) of the same compound?
The TGI was 3.45 µM.

And the TGI (SF-539 CNS)?
The TGI was 24.4 µM.

And the TGI (T-47D breast)?
The TGI was 24.3 µM.

What about the TGI (NCI/ADR-RES ovarian) of the same compound?
The TGI was greater than 100 µM.

Source: PubChem BioAssay (NCI)
